According to ChEMBL document CHEMBL5463729, “Data for DCP probe BAY 1753011” (2023):

Columns and labels:
Details in all cases: Compound concentration 10.0 uM
[1] = target: Protein-tyrosine kinase 6 (Homo sapiens) (UniProt Q13882); test: Inhibition of BRK(h) at 10.0 µM in the Eurofins Kinase panel
[2] = target: Dual specificity protein kinase CLK2 (Homo sapiens) (UniProt P49760); test: Inhibition of CLK2(h) at 10.0 µM in the Eurofins Kinase panel
[3] = target: Ephrin type-B receptor 2 (Homo sapiens) (UniProt P29323); test: Inhibition of EphB2(h) at 10.0 µM in the Eurofins Kinase panel
[4] = target: Serine/threonine-protein kinase LATS2 (Homo sapiens) (UniProt Q9NRM7); test: Inhibition of LATS2(h) at 10.0 µM in the Eurofins Kinase panel
[5] = target: Dual specificity mitogen-activated protein kinase kinase 1 (Homo sapiens) (UniProt Q02750); test: Inhibition of MEK1(h) at 10.0 µM in the Eurofins Kinase panel
[6] = target: Serine/threonine-protein kinase NIM1 (Homo sapiens) (UniProt Q8IY84); test: Inhibition of NIM1(h) at 10.0 µM in the Eurofins Kinase panel
[7] = target: Serine/threonine-protein kinase NLK (Homo sapiens) (UniProt Q9UBE8); test: Inhibition of NLK (h) at 10.0 µM in the Eurofins Kinase panel
[8] = target: Serine/threonine-protein kinase PAK 3 (Homo sapiens) (UniProt O75914); test: Inhibition of PAK3(h) at 10.0 µM in the Eurofins Kinase panel
[9] = target: [Pyruvate dehydrogenase (acetyl-transferring)] kinase isozyme 4, mitochondrial (Homo sapiens) (UniProt Q16654); test: Inhibition of PDHK4(h) at 10.0 µM in the Eurofins Kinase panel
[10] = target: Phosphorylase b kinase gamma catalytic chain, skeletal muscle/heart isoform (Homo sapiens) (UniProt Q16816); test: Inhibition of PhKgamma1(h) at 10.0 µM in the Eurofins Kinase panel
[11] = target: Serine/threonine-protein kinase pim-3 (Homo sapiens) (UniProt Q86V86); test: Inhibition of Pim-3(h) at 10.0 µM in the Eurofins Kinase panel
[12] = target: Protein kinase C theta type (Homo sapiens) (UniProt Q04759); test: Inhibition of PKCtheta(h) at 10.0 µM in the Eurofins Kinase panel
[13] = target: Serine/threonine-protein kinase D3 (Homo sapiens) (UniProt O94806); test: Inhibition of PKD3(h) at 10.0 µM in the Eurofins Kinase panel
[14] = target: Serine/threonine-protein kinase PRP4 homolog (Homo sapiens) (UniProt Q13523); test: Inhibition of PRP4(h) at 10.0 µM in the Eurofins Kinase panel
[15] = target: Mitogen-activated protein kinase 12 (Homo sapiens) (UniProt P53778); test: Inhibition of SAPK3(h) at 10.0 µM in the Eurofins Kinase panel
[16] = target: Serine/threonine-protein kinase 32A (Homo sapiens) (UniProt Q8WU08); test: Inhibition of STK32A(h) at 10.0 µM in the Eurofins Kinase panel
[17] = target: Serine/threonine-protein kinase 32B (Homo sapiens) (UniProt Q9NY57); test: Inhibition of STK32B(h) at 10.0 µM in the Eurofins Kinase panel
[18] = target: Histamine H1 receptor (Homo sapiens) (UniProt P35367)
[19] = target: T1, Alpha-1D adrenergic receptor (Homo sapiens) (UniProt P25100)
T1 sequence (whole entry): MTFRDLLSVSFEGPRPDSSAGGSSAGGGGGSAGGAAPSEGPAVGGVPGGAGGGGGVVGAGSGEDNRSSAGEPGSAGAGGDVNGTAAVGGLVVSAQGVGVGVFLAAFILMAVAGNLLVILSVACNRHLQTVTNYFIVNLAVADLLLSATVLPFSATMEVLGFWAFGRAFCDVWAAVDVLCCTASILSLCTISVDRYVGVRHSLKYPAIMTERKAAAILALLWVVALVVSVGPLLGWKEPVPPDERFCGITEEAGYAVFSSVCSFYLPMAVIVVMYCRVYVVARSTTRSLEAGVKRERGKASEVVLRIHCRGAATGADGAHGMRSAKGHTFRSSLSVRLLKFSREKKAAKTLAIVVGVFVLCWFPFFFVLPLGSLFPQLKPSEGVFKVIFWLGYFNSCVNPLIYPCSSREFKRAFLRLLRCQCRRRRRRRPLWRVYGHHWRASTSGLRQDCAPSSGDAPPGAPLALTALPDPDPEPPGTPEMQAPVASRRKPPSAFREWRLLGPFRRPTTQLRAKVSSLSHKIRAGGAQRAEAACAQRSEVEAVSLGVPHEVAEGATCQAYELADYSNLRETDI

[20] = target: Sigma non-opioid intracellular receptor 1 (Homo sapiens) (UniProt Q99720)
[21] = target: T2, 5-hydroxytryptamine receptor 1A (Homo sapiens) (UniProt P08908)
T2 sequence (whole entry): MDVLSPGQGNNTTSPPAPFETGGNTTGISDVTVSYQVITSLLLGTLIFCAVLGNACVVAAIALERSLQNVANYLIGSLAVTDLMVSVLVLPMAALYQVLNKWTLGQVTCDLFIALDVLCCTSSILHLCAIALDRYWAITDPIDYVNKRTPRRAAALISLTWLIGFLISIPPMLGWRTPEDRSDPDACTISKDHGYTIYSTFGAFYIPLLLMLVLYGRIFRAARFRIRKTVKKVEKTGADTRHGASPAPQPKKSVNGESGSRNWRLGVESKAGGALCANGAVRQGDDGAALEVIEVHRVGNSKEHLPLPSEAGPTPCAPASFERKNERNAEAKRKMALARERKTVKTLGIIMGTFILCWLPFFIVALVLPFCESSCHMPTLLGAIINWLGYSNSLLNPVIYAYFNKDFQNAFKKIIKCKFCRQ

[22] = target: T3, Muscarinic acetylcholine receptor M4 (Homo sapiens) (UniProt P08173)
T3 sequence (whole entry): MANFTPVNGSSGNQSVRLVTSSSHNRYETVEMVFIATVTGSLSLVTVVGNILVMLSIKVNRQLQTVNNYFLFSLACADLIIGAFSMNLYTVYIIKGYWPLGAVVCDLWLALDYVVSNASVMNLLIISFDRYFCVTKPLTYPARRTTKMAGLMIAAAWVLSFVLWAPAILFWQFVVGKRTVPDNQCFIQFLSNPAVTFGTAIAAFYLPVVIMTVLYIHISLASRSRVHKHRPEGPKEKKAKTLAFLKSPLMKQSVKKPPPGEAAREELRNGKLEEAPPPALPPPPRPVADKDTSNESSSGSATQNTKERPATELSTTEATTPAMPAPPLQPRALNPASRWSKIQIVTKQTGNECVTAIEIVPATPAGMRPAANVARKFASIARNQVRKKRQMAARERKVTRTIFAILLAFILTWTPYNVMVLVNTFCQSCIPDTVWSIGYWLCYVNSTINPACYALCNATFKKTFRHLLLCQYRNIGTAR

Histamine H1 receptor (Homo sapiens), sequence (P35367 whole entry): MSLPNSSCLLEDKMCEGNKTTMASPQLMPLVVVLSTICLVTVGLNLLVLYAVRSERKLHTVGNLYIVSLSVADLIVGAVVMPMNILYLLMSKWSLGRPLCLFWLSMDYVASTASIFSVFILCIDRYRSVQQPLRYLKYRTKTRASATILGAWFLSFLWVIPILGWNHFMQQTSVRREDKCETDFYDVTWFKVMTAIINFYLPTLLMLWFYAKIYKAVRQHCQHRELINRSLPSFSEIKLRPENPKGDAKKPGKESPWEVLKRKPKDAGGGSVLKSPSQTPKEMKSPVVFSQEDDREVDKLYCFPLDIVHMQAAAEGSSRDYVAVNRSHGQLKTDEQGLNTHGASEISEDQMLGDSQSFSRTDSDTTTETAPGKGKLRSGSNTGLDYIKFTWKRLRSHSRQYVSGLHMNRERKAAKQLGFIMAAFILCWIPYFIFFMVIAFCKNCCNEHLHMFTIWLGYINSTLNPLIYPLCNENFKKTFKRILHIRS
Sigma non-opioid intracellular receptor 1 (Homo sapiens), sequence (Q99720 whole entry): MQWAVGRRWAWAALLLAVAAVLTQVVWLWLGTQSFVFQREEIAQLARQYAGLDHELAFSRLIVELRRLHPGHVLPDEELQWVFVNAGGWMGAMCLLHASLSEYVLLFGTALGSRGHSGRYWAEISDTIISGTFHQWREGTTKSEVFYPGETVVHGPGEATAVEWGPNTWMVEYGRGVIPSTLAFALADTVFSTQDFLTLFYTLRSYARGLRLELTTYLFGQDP
Dual specificity mitogen-activated protein kinase kinase 1 (Homo sapiens), sequence (Q02750 whole entry): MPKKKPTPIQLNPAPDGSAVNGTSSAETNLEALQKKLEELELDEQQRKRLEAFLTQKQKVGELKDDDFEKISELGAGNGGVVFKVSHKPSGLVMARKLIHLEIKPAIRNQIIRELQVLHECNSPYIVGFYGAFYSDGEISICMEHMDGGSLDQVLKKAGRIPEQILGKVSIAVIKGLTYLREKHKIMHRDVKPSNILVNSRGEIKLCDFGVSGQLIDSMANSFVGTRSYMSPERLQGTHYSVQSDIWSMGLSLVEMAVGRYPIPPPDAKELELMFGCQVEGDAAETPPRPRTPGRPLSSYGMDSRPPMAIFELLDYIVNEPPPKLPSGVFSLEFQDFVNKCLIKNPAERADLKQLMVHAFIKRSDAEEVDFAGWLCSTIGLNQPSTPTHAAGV
Serine/threonine-protein kinase LATS2 (Homo sapiens), sequence (Q9NRM7 whole entry): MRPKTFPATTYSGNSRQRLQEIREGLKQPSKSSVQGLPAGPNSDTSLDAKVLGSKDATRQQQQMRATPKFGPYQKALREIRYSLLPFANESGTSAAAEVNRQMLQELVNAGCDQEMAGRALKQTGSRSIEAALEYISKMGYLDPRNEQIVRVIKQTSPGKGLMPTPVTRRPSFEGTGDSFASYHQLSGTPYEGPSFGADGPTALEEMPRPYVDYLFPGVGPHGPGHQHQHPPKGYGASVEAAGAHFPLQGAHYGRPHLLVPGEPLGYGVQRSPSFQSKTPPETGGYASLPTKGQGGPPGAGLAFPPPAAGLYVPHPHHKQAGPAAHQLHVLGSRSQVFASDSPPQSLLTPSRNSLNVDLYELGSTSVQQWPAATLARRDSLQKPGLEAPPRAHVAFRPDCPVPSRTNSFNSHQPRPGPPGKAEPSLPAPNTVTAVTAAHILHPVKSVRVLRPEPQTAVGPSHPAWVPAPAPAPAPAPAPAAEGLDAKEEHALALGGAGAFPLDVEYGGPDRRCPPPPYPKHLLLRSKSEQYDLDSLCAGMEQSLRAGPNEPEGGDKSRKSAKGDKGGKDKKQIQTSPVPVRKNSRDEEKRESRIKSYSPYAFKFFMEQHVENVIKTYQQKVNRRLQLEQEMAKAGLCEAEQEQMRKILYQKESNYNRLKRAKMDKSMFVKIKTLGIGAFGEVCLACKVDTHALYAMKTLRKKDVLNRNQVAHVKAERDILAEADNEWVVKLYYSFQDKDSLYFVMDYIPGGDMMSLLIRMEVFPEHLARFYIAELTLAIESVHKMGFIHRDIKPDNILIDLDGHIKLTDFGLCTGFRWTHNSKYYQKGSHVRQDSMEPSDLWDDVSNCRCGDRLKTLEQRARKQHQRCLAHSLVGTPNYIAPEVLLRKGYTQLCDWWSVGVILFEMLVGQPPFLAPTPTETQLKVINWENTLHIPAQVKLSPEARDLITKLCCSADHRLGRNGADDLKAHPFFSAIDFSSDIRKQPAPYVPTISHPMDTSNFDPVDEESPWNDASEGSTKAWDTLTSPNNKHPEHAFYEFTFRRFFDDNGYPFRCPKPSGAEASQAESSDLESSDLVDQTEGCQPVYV
Serine/threonine-protein kinase PRP4 homolog (Homo sapiens), sequence (Q13523 whole entry): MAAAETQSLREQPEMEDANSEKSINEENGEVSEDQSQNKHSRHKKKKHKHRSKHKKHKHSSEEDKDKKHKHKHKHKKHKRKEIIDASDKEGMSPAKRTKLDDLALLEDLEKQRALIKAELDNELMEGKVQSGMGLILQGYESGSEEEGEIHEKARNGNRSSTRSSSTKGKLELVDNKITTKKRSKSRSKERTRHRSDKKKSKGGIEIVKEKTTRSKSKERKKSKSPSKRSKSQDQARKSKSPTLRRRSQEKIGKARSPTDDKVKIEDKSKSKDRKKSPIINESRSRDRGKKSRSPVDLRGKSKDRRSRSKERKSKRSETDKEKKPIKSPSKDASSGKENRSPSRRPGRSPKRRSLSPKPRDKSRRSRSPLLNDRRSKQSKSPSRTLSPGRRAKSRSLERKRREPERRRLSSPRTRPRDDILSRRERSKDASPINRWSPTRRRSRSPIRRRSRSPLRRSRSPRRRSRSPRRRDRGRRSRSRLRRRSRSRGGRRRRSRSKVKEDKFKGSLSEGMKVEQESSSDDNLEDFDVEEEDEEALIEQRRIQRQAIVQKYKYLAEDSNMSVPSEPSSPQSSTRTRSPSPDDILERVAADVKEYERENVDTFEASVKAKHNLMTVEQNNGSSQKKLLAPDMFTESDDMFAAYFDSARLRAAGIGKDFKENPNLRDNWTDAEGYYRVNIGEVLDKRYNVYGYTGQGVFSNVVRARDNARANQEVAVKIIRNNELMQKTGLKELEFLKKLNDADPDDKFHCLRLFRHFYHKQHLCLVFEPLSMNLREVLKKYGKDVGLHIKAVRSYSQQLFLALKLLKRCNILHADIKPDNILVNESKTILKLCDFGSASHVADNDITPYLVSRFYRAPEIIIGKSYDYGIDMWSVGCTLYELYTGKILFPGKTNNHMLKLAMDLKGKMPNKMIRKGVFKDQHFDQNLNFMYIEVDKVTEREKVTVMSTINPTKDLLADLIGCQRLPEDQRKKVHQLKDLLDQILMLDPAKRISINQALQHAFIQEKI
Mitogen-activated protein kinase 12 (Homo sapiens), sequence (P53778 whole entry): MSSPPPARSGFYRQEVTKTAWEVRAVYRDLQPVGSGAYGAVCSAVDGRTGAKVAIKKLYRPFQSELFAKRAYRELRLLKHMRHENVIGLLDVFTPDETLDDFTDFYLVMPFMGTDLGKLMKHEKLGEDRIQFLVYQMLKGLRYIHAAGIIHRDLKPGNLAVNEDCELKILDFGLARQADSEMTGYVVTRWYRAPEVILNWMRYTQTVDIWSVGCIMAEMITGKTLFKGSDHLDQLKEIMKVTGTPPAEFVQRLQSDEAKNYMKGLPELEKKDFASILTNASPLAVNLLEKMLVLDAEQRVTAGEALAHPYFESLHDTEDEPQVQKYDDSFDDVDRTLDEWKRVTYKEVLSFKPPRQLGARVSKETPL
Protein-tyrosine kinase 6 (Homo sapiens), sequence (Q13882 whole entry, looked up): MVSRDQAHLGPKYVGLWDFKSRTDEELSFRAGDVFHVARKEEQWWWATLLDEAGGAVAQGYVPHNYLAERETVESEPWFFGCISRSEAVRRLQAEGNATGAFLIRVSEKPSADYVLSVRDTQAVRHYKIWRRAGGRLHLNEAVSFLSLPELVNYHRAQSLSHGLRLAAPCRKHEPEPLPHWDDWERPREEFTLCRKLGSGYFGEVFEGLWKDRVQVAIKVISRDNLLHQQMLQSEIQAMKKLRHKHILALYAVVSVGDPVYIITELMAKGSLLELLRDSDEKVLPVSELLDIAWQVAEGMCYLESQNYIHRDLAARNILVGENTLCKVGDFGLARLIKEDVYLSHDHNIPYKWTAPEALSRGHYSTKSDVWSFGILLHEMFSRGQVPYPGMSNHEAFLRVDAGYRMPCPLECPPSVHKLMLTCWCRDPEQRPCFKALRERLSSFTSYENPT
Serine/threonine-protein kinase 32B (Homo sapiens), sequence (Q9NY57 whole entry): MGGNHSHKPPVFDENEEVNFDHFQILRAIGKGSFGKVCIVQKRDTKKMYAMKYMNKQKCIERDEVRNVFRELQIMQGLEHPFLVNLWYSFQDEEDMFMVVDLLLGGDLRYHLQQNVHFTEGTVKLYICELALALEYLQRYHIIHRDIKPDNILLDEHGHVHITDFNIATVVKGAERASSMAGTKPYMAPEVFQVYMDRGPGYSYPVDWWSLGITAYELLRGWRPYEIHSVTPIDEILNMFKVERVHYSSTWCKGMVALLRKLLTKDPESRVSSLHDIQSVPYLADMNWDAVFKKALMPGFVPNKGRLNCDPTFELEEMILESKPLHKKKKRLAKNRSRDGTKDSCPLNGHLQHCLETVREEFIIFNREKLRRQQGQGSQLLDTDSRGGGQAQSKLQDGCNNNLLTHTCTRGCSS

Structure (SMILES)	inhibition [1] [%]	inhibition [2] [%]	inhibition [3] [%]	inhibition [4] [%]	inhibition [5] [%]	inhibition [6] [%]	inhibition [7] [%]	inhibition [8] [%]	inhibition [9] [%]	inhibition [10] [%]	inhibition [11] [%]	inhibition [12] [%]	inhibition [13] [%]	inhibition [14] [%]	inhibition [15] [%]	inhibition [16] [%]	inhibition [17] [%]	inhibition [18] [%]	inhibition [19] [%]	inhibition [20] [%]	other results
O=c1n(Cc2cncn2-c2cccc(Cl)c2)nc(-c2ccc(Cl)cc2)n1C[C@H](O)C(F)(F)F	-7.96	-2.19	-4.8	5.08	4.57	3.02	-1.74	7.29	5.68	7.19	4.9	14.5	1.68	-1.84	-3.96	-1.08	-7.15	28.5	-1.97	24.1	inhibition [21]: -1%; inhibition [22]: 0%
C[C@H](O)c1nc(Cn2nc(-c3ccc(Cl)cc3)n(C[C@H](O)C(F)(F)F)c2=O)nn1-c1cccc(Cl)c1 [PECAVAPTAN]	-3.8	-2.64	6.86	3.15	-3.73	5.79	-2.51	1.73	9.02	-1.63	3.06	3.44	-0.82	6.82	-0.09	3.15	-0.99	12	-0.23	27	inhibition [21]: -2%; inhibition [22]: 7%
